We go through one molecule from publication PMC9495854, “Novel Phenothiazine/Donepezil-like Hybrids Endowed with Antioxidant Activity for a Multi-Target Approach to the Therapy of Alzheimer’s Disease” (Antioxidants, 2022).

Broadly, the IC50 is the concentration that gives 50% inhibition.

Each structure is given as a SMILES string.

Series [1] in a line: MTT cell viability assay, HepG2. Format: cell-based. The following applies: human, HepG2 cells. Here is the method: (§1) Human hepatocellular liver carcinoma (HepG2) cell line and human neuroblastoma cell line, SH-SY5Y, were purchased from the American Type Culture Collection (ATCC, Manassas, VA, USA) and maintained at 37 °C in a humidified atmosphere (95% air and 5% carbon dioxide), and they were periodically screened for contamination. HepG2 cells were cultured in Eagle’s Minimum Essential Medium (MEM, Euroclone S.p.A., Pero, MI, Italy), supplemented with 10% Fetal Bovine Serum (FBS, Euroclone S.p.A., Pero, MI, Italy), 1% L-glutamine (Euroclone S.p.A., Pero, MI, Italy), 100 U/mL penicillin/streptomycin (Euroclone S.p.A., Pero, MI, Italy), 1% Non-Essential Amino Acids (NEAA, Euroclone S.p.A., Pero, MI, Italy). SH-SY5Y cells were grown in a 1:1 mixture of Dulbecco’s modified Eagle’s medium (DMEM)—high glucose (Euroclone S.p.A., Pero, MI, Italy) and Ham’s F12 Medium (Euroclone S.p.A., Pero, MI, Italy) supplemented with 10% FBS, 1% L-glutamine and 100 U/mL penicillin/streptomycin. For cell assays, cells were trypsinized using Trypsin-EDTA 1X in PBS (Euroclone S.p.A., Pero, MI, Italy).
(§2) HepG2 and SH-SY5Y cell viability was assessed as previously reported by using a conventional 3-(4,5-dimethylthiazol-2-yl)-2,5-diphenyltetrazolium bromide (MTT) assay. In brief, viable cells were seeded and grown for 24 h into a sterile 96-well cell culture cluster (Corning, Sigma-Aldrich, St. Louis, MO, USA) in a complete medium and maintained at 37 °C in a humidified atmosphere with 5% CO2. The cells were then added with different concentrations of each compound for a period of 1 h or 24 h. At the end, the culture medium was replaced by a solution of 0.5 mg/mL MTT (Sigma-Aldrich, St. Louis, MO, USA) in PBS. After 2 h of incubation at 37 °C in 5% CO2, the supernatant was carefully removed from each well, and the formazan crystals were dissolved in DMSO. The absorbance values were measured at 570 nm using Tecan Infinite M1000 Pro (Tecan, Cernusco S.N., Italy) and DMSO medium as blank solution. The results were reported as % cell viability = [optical density (OD) of tested compound/medium OD of control cells] × 100. The results are expressed as mean ± SEM of at least three independent measurements in triplicate.
(In general: Tetrazolium assays rely on reduction of a dye to a coloured formazan, in cell work by metabolically active cells.)

The target of a further series is T1, Aβ1-40 aggregation (Homo sapiens, UniProt P05067).
T1 construct: purchased EZBiolab
T1 sequence (P05067 672-711 limits assumed): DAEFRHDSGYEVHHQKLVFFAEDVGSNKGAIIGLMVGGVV
Description: Inhibition of Aβ40 aggregation, ThT fluorescence. Type of series: biochemical. The following applies: inhibitor 10 µM, Aβ40 30 µM, PBS pH 7.4, 2% HFIP, 2 h 25 °C; mean ± SEM; read-out: Aβ1-40 Aggregation (I% at 10 µM). Here is the method: ThT fluorescence in the presence of Aβ was measured for each compound according a previously described procedure. The samples were co-incubated and mixed in 96-well black, non-binding microplates (Greiner Bio-One GmbH, Frickenhausen, Germany), incubating Aβ40 (EZBiolab, Carmel, IN, USA) at a final concentration of 30 µM with each inhibitors at a final concentration of 10 µM in PBS (pH 7.4) containing 2% 1,1,1,3,3,3-hexafluoro-2-propanol (HFIP). After 2 h at 25 °C, a 25 µM ThT solution was added and fluorescence was determined using the multi-plate reader Tecan Infinite M1000 Pro (Tecan, Cernusco S.N., Italy). The results are reported as mean of three independent experiments ± SEM [13].

Series [2] in a line: MTT cell viability assay, SH-SY5Y. Type of series: cell-based. The following applies: human, SH-SY5Y cells, SHSY-5Y. Here is the method: as §1, §2
The next series deals with HepG2 cells. The experiment in a line: DCFH-DA cell-based antioxidant assay (H2O2-induced oxidation), HepG2. The following applies: Homo sapiens, 1 h compound, 100 μM H2O2, read-out: DCFDH-DA IC50 ± SEM HepG2. As for the experimental part:
as §1, with “HepG2” for “Human hepatocellular liver carcinoma (HepG2) cell line and human neuroblastoma cell line, SH-SY5Y, were purchased from the American Type Culture Collection (ATCC, Manassas, VA, USA) and maintained at 37 °C in a humidified atmosphere (95% air and 5% carbon dioxide), and they were periodically screened for contamination. HepG2”
(§3) According to a slightly modified procedure already reported in the literature, the generation of ROS was determined using an oxidation-sensitive fluorescent probe, 2′,7′-dichlorodihydrofluorescein diacetate (DCFH-DA, D6665; Sigma-Aldrich, St. Louis, MO, USA). Briefly, viable cells were seeded in a black 96-well cell culture plate (Costar, Sigma-Aldrich, St. Louis, MO, USA) and after 24 h were incubated with different concentrations (0.1–100 µM) of each compound for 1 h at 37 °C in 5% CO2. […] After washing using PBS, 100 μM H2O2 in medium without serum was added to each well and the cells were incubated for an additional 30 min. The formation of fluorescent dichlorofluorescein (DCF) due to oxidation of DCFH in the presence of ROS, was read at 530 nm using a microplate reader Tecan Infinite M1000 Pro (Tecan, Cernusco S.N., Italy) and DMSO medium was used for control cells. The results are expressed as mean ± SEM of at least three independent measurements in triplicate.

Series [3] can be described thus: DPPH radical scavenging assay. The note with it: DPPH 100 µM in methanol, 30 min. As for the experimental part:
A previously reported method (Blois) with some modifications (Mishra, Ojha, & Chaudhury, 2012) was used to carry out the DPPH assay in 96-well microtiter plates. Each tested compound was dissolved in methanol, after which a freshly prepared solution of DPPH in methanol (100 µM final concentration) was added. Following vigorous stirring, each mixture was left in the dark for 30 min at room temperature, after which absorbance values for each well were read at 520 nm using a spectrophotometric plate reader (VICTOR^3 V multilabel plate reader, PerkinElmer). Antioxidant activity was determined as RSA% (radical scavenging activity). The value was calculated using following equation: RSA% = 100 × [(Ao − Ai)/Ao], where Ao and Ai represent DPPH absorbance in absence or in presence of antioxidant, respectively. Antiradical curves for calculating the EC50 values were obtained by testing each compound at several concentrations. Values of all parameters are expressed as mean ± SEM of at least three independent measurements in triplicate.
On the technique in general: DPPH is a stable violet radical that fades when it is reduced.

The next series concerns SH-SY5Y cells. Description: DCFH-DA cell-based antioxidant assay (H2O2-induced oxidation), SH-SY5Y. The note with it: Homo sapiens, SHSY-5Y, 1 h compound, 100 μM H2O2, read-out: DCFDH-DA IC50 ± SEM SHSY-5Y. Here is the method: as §1, with “HepG2” for “Human hepatocellular liver carcinoma (HepG2) cell line and human neuroblastoma cell line, SH-SY5Y, were purchased from the American Type Culture Collection (ATCC, Manassas, VA, USA) and maintained at 37 °C in a humidified atmosphere (95% air and 5% carbon dioxide), and they were periodically screened for contamination. HepG2”
as §3

Take `O=C(NCC1CCN(Cc2ccccc2Cl)CC1)c1ccc2c(c1)Nc1ccccc1S2` [Compound 11b, N-((1-(2-Chlorobenzyl)piperidin-4-yl)methyl)-10H-phenothiazine-2-carboxamide]: the IC50 at 1 h is greater than 100 µM in series [1] (HepG2, 1 h exposure) and greater than 100 µM in series [2] (1 h exposure). For the same molecule, the IC50 at 24 h was 27.7 ± 0.4 µM in series [1] (HepG2, 24 h exposure, read-out: MTT cytotoxicity IC50 ± SEM HepG2 24 h) and 21.2 ± 1 µM in series [2] (24 h exposure, read-out: MTT cytotoxicity IC50 ± SEM SHSY-5Y 24 h). Further, the inhibition at 10 µM on Aβ1-40 aggregation was 20%. Further, the values for the concentration for half-maximal inhibition (IC50) in the series on HepG2 cells and with SH-SY5Y cells were 55.3 ± 1.1 µM and 1.32 ± 0.2 µM, respectively. In series [3], the “EC50 (μmol/μmol of DPPH ± SEM)” value was 0.139 ± 0.014 μmol/μmol of DPPH.
